According to PMC6364417, “Kinase inhibitor library screening identifies synergistic drug combinations effective in sensitive and resistant melanoma cells” (Journal of Experimental & Clinical Cancer Research : CR, 2019):

Experiments:
Test in all cases: Kinase inhibitor library screening, PrestoBlue cell viability, 1 or 10 μM, 72 h
[1] = test system: 501Mel-GP cells (Dabrafenib-resistant); settings: 501Mel GP, in %
[2] = test system: IGR37-GP cells (Dabrafenib-resistant); settings: IGR37 GP
IGR37 cells (parental) = settings: IGR37 Parental, in %
[3] = test system: 501Mel-XP cells (Vemurafenib-resistant); settings: 501Mel XP, in %
[4] = test system: IGR37-XP cells (Vemurafenib-resistant); settings: IGR37 XP
501Mel cells (parental) = settings: 501Mel Parental, in %
Summary of the method: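 Cells are treated with each inhibitor at 1 or 10 μM, incubated 72 h, then PrestoBlue reagent is added and the plate is read. Data are normalised to untreated cells.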

[5] = test system: A375-GP cells (Dabrafenib-resistant); settings: A375 GP; for cell viability (kinase inhibitor library screening): in %
A375 cells (parental) = settings: A375 Parental; for cell viability (kinase inhibitor library screening): in %
[6] = test system: A375-XP cells (Vemurafenib-resistant); settings: A375 XP; for cell viability (kinase inhibitor library screening): in %

Structure (SMILES): COc1cc2/c(=N/c3ccc(Br)cc3F)nc[nH]c2cc1OCC1CCN(C)CC1 [Vandetanib (Zactima)]
- cell viability (kinase inhibitor library screening) ([1]; 10μΜ): 0.0201
- cell viability (kinase inhibitor library screening) ([2]; 1μΜ, in %): 93.4
- cell viability (kinase inhibitor library screening) ([2]; 10μΜ, in %): 31.3
- cell viability (kinase inhibitor library screening) (IGR37 cells (parental); 1μΜ): 96.5
- cell viability (kinase inhibitor library screening) (IGR37 cells (parental); 10μΜ): 11.2
- cell viability (kinase inhibitor library screening) ([3]; 1μΜ): 89.6
- cell viability (kinase inhibitor library screening) ([3]; 10μΜ): -0.445
- cell viability (kinase inhibitor library screening) ([4]; 1μΜ, in %): 94.5
- cell viability (kinase inhibitor library screening) ([4]; 10μΜ, in %): 3.2
- cell viability (kinase inhibitor library screening) (501Mel cells (parental); 1μΜ): 98.8
- cell viability (kinase inhibitor library screening) (501Mel cells (parental); 10μΜ): 0.4
- cell viability (kinase inhibitor library screening) ([5]; 1μΜ): 98.8
- cell viability (kinase inhibitor library screening) ([5]; 10μΜ): 19.2
- cell viability (kinase inhibitor library screening) (A375 cells (parental); 1μΜ): 98.6
- cell viability (kinase inhibitor library screening) (A375 cells (parental); 10μΜ): 48.0
- cell viability (kinase inhibitor library screening) ([6]; 1μΜ): 103.0
- cell viability (kinase inhibitor library screening) ([6]; 10μΜ): 39.3

Structure (SMILES): Cl.Cl.Clc1ccc(Nc2nnc(Cc3ccncc3)c3ccccc23)cc1 [Vatalanib dihydrochloride (PTK787)]
- cell viability (kinase inhibitor library screening) ([1]; 1μΜ): 106.0
- cell viability (kinase inhibitor library screening) ([1]; 10μΜ): 81.7
- cell viability (kinase inhibitor library screening) ([2]; 1μΜ, in %): 95.0
- cell viability (kinase inhibitor library screening) ([2]; 10μΜ, in %): 83.6
- cell viability (kinase inhibitor library screening) (IGR37 cells (parental); 1μΜ): 118.3
- cell viability (kinase inhibitor library screening) (IGR37 cells (parental); 10μΜ): 92.4
- cell viability (kinase inhibitor library screening) ([3]; 1μΜ): 94.6
- cell viability (kinase inhibitor library screening) ([3]; 10μΜ): 73.0
- cell viability (kinase inhibitor library screening) ([4]; 10μΜ, in %): 58.7
- cell viability (kinase inhibitor library screening) (501Mel cells (parental); 1μΜ): 98.6
- cell viability (kinase inhibitor library screening) (501Mel cells (parental); 10μΜ): 93.0
- cell viability (kinase inhibitor library screening) ([5]; 1μΜ): 96.3
- cell viability (kinase inhibitor library screening) ([5]; 10μΜ): 92.3
- cell viability (kinase inhibitor library screening) (A375 cells (parental); 1μΜ): 105.1
- cell viability (kinase inhibitor library screening) (A375 cells (parental); 10μΜ): 92.8
- cell viability (kinase inhibitor library screening) ([6]; 10μΜ): 99.5

Structure (SMILES): CCCS(=O)(=O)Nc1ccc(F)c(C(=O)c2c[nH]c3ncc(-c4ccc(Cl)cc4)cc23)c1F [Vemurafenib (PLX4032)]
- Cell viability in kinase inhibitor library screening, 501Mel GP, 1μΜ ([1]; 1μΜ, 72 h): 104.7
- Cell viability in kinase inhibitor library screening, 501Mel GP, 10μΜ ([1]; 10μΜ, 72 h): 81.3
- Cell viability in kinase inhibitor library screening, IGR37 GP, 10μΜ ([2]; 10μΜ, 72 h): 88.3%
- Cell viability in kinase inhibitor library screening, IGR37 GP, 1μΜ ([2]; 1μΜ, 72 h, in %): 94.0
- Cell viability in kinase inhibitor library screening, IGR37 Parental, 1μΜ (IGR37 cells (parental); 1μΜ, 72 h): 43.2
- Cell viability in kinase inhibitor library screening, IGR37 Parental, 10μΜ (IGR37 cells (parental); 10μΜ, 72 h): 34.4
- Cell viability in kinase inhibitor library screening, 501Mel XP, 1μΜ ([3]; 1μΜ, 72 h): 94.9
- Cell viability in kinase inhibitor library screening, 501Mel XP, 10μΜ ([3]; 10μΜ, 72 h): 68.0
- Cell viability in kinase inhibitor library screening, IGR37 XP, 10μΜ ([4]; 10μΜ, 72 h): 67.9%
- Cell viability in kinase inhibitor library screening, IGR37 XP, 1μΜ ([4]; 1μΜ, 72 h, in %): 97.0
- Cell viability in kinase inhibitor library screening, 501Mel Parental, 1μΜ (501Mel cells (parental); 1μΜ, 72 h): 65.5
- Cell viability in kinase inhibitor library screening, 501Mel Parental, 10μΜ (501Mel cells (parental); 10μΜ, 72 h): 61.7
- Cell viability in kinase inhibitor library screening, A375 GP, 1μΜ ([5]; 1μΜ, 72 h): 92.1
- Cell viability in kinase inhibitor library screening, A375 GP, 10μΜ ([5]; 10μΜ, 72 h): 68.9
- Cell viability in kinase inhibitor library screening, A375 Parental, 10μΜ (A375 cells (parental); 10μΜ, 72 h): 14.6
- Cell viability in kinase inhibitor library screening, A375 Parental, 1μΜ (A375 cells (parental); 1μΜ, 72 h): 28.6
- Cell viability in kinase inhibitor library screening, A375 XP, 1μΜ ([6]; 1μΜ, 72 h): 98.7
- Cell viability in kinase inhibitor library screening, A375 XP, 10μΜ ([6]; 10μΜ, 72 h): 76.6
